Test results published in patent publication US20020002171A1, “Materials and methods for killing nematodes and nematode eggs” (priority 2000, published 2002).

Tested on: Caenorhabditis elegans
Experiment: C. elegans L1 nematicidal dose response in 96-well plates, 5 day visual score (Example 2; same procedure for Example 7, Table 3)
Assay type: in vivo
Parameters: key to 5 Day Visual Score V1 / 5 Day Visual Score V2 / 5 Day Visual Score V3 / 5 Day Visual Score V4 / 5 Day Visual Score V6 / 5 Day Visual Score V5 / Initial HTS Run Visual Score / Follow-up HTS Run Visual Score: Dead: only stiff L1s (no movement); Dead (L4): worms are dead, but at a later larval stage; majority of worms are L1 (based on size) worms move when plate is tapped; majority of worms are L2 (based on size); majority of worms are L3 (based on size); majority of worms are L4 (based on size); AD: majority of worms are adult; #AD: 5 adult worms or less; B!: sterile (0-25 progeny); B: low broodsize (25-100 progeny); ˜B: moderate broodsize (100-250 progeny); <: reduced broodsize (250-500 progeny); OK: no effect (˜1000+ progeny)
Conditions: for 5 Day Visual Score V1 / 5 Day Visual Score V2 / 5 Day Visual Score V4 / 5 Day Visual Score V5 / 5 Day Visual Score V6 / 5 Day Visual Score V3: dose response; for 5 Day Visual Score V1: dilution V1, day 5; for 5 Day Visual Score V2: dilution V2, day 5; for 5 Day Visual Score V4: dilution V4, day 5; for 5 Day Visual Score V5: dilution V5, day 5; for 5 Day Visual Score V6: dilution V6, day 5; for 5 Day Visual Score V3: dilution V3, day 5
Experimental: Caenorhabditis elegans adults were grown on Nematode Growth Medium (NGM) until they produced eggs, then the adults were removed.
The eggs were allowed to hatch, and the L1 larvae collected. See The Nematode Caenorhabditis elegans (1988) Cold Spring Harbor Laboratory Press. Using a Matrix Programmable Pipette, the L1s were distributed into 96-well tissue culture plates, 20 L1 in 50 μl NGM per well. Antibiotic/Antimyoticwas added to each well, and 1% by weight E. coli strain HB101. The subject anthelmintic compounds were stored at 5 mM in 100% DMSO. 0.7 μl of compounds 1-31 were added to the left-most column of wells to yield a final concentration of 70 μM in 1.4% DMSO, with 1.4% DMSO only as the control. The compounds were then subjected to 5 more 3-fold dilutions from left to right to yield 6 column concentrations of 70 μM, 23.3 μM, 7.8 μM, 2.6 μM, 0.9 μM, and 0.3 μM. Plates were stored in air-tight Rubbermaid plastic boxes at 20° C. The nematodes had cleared all control wells by day 4, and nematode viability was scored by visual examination under a 100× dissecting microsope on day 5. A visual viability scoring system was used as follows:
Column V1 has a compound concentration of 70 μM with sequential 3-fold dilutions reported in columns V2, V3, V4, V5, and V6, respectively, such that the V6 concentration was 0.3 μM.
The nematicidal activity of anthelmintic Compositions 48-168 were determined in accordance with the procedure outlined in Example 2.

SMILES	Follow-up HTS Run % Run [%]	Follow-up HTS Run Visual Score	Follow-up HTS Run mOD [mOD]	Initial HTS Run % Run [%]	Initial HTS Run Visual Score	Initial HTS Run mOD [mOD]	5 Day Visual Score V1	5 Day Visual Score V2	5 Day Visual Score V4	5 Day Visual Score V5	5 Day Visual Score V6	5 Day Visual Score V3
Cc1cccc(C)c1N1CCN(c2nsc(N3CCC(O)CC3)n2)CC1 [compound 218]	78	Dead	125	91	1AD/B!	100	Dead	Dead	OK (no effect (˜1000+ progeny))	OK (no effect (˜1000+ progeny))	OK (no effect (˜1000+ progeny))	
Cc1cccc(C)c1N1CCN(c2nsc(N3CC(C)CC(C)C3)n2)CC1 (stereo not shown) [compound 219]	74	Dead/1AD/B!	119	90	4AD/B	99	Dead		OK (no effect (˜1000+ progeny))	OK (no effect (˜1000+ progeny))	OK (no effect (˜1000+ progeny))	
CCCCN(CCCCO)c1nc(N2CCN(c3c(C)cccc3C)CC2)ns1 [compound 220]	75	Dead	121	95	1AD/B!	105	Dead		OK (no effect (˜1000+ progeny))	OK (no effect (˜1000+ progeny))	OK (no effect (˜1000+ progeny))	˜B (moderate broodsize (100-250 progeny))
COCCN(CCOC)c1nc(N2CCN(c3c(C)cccc3C)CC2)ns1 [compound 221]	84	5AD/B	136	97	L4/AD/B	107	#AD/˜B		OK (no effect (˜1000+ progeny))	OK (no effect (˜1000+ progeny))	OK (no effect (˜1000+ progeny))	OK (no effect (˜1000+ progeny))
CCCN(CC1CC1)c1nc(N2CCN(c3ncccn3)CC2)ns1 [compound 222]	126		203	106	L2-Dead L3?	117	#AD/˜B	OK (no effect (˜1000+ progeny))	OK (no effect (˜1000+ progeny))	OK (no effect (˜1000+ progeny))	OK (no effect (˜1000+ progeny))	OK (no effect (˜1000+ progeny))
CCN(CC)C(=O)C1CCCN(c2nc(N3CCN(c4ccc(F)cc4)CC3)ns2)C1 (stereo not shown) [compound 223]	118	Dead	190	107		118	Dead	B (low broodsize (25-100 progeny))	OK (no effect (˜1000+ progeny))	OK (no effect (˜1000+ progeny))	OK (no effect (˜1000+ progeny))	< (reduced broodsize (250-500 progeny))
CCCCNc1nsc(N2CCN(c3cccc(C(F)(F)F)c3)CC2)n1 [compound 224]	122	L1	196	143		157	Dead	Dead	OK (no effect (˜1000+ progeny))	OK (no effect (˜1000+ progeny))	OK (no effect (˜1000+ progeny))	< (reduced broodsize (250-500 progeny))
Fc1ccc(CCNc2nsc(N3CCN(c4cccc(C(F)(F)F)c4)CC3)n2)cc1 [compound 225]	107		172	114		125			OK (no effect (˜1000+ progeny))	OK (no effect (˜1000+ progeny))	OK (no effect (˜1000+ progeny))	˜B (moderate broodsize (100-250 progeny))
FC(F)(F)c1cccc(N2CCN(c3nc(NCC4CCCCC4)ns3)CC2)c1 [compound 226]	104		167	107		118	L1	˜B (moderate broodsize (100-250 progeny))	OK (no effect (˜1000+ progeny))	OK (no effect (˜1000+ progeny))	OK (no effect (˜1000+ progeny))	OK (no effect (˜1000+ progeny))
Cc1cccc(C)c1N1CCN(c2nsc(N3CCN(c4c(C)cccc4C)CC3)n2)CC1 [compound 227]	91	Dead	146	107	Dead	118	Dead	Dead	OK (no effect (˜1000+ progeny))	OK (no effect (˜1000+ progeny))	OK (no effect (˜1000+ progeny))	OK (no effect (˜1000+ progeny))
CCN(c1nc(N2CCN(c3c(C)cccc3C)CC2)ns1)C1CCCCC1 [compound 228]	73	Dead/1L4/1AD	118	107	1AD/B!	118	Dead	Dead	OK (no effect (˜1000+ progeny))	OK (no effect (˜1000+ progeny))	OK (no effect (˜1000+ progeny))	OK (no effect (˜1000+ progeny))
CCCCCCCCCCCCCCCCCCN(C)c1nc(N2CCN(c3c(C)cccc3C)CC2)ns1 [compound 229]	81	5AD/B	130	125	Dead	137	Dead		OK (no effect (˜1000+ progeny))	OK (no effect (˜1000+ progeny))	OK (no effect (˜1000+ progeny))	#AD/˜B
CCCCC(CC)CN(CC(CC)CCCC)c1nc(N2CCN(c3c(C)cccc3C)CC2)ns1 (stereo not shown) [compound 230]	63	3AD/B	101	121	Dead/1AD/B!	133	Dead		< (reduced broodsize (250-500 progeny))	OK (no effect (˜1000+ progeny))	OK (no effect (˜1000+ progeny))	
Cc1cccc(C)c1N1CCN(c2nsc(N(CC(C)C)CC(C)C)n2)CC1 [compound 231]	65	2AD/B	105	119	2AD/B	131	Dead	Dead	OK (no effect (˜1000+ progeny))	OK (no effect (˜1000+ progeny))	OK (no effect (˜1000+ progeny))	< (reduced broodsize (250-500 progeny))
